Laboratory results: patent publication US20230167118A1, “DEGRADATION OF BRUTON'S TYROSINE KINASE (BTK) BY CONJUGATION OF BTK INIDBITORS WITH E3 LIGASE LIGAND AND METHODS OF USE” (BEIGENE, LTD., priority 2020, published 2023)

Tests used:
BTK = biological target: T1, BTK (Homo sapiens, UniProt Q06187); test: Cell Degradation: BTK degradation in TMD-8 cells, HTRF assay; type: cell-based; conditions: 6 h treatment, IC50 (DC50) of BTK degradation
T1 construct: High control=Cell group with added DMSO and without compound, indicating microplate readings without BTK degradation; endogenous in cells; host or cells: TMD-8 cells
In short: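 TMD-8 cells treated 6 h with 8-dose 6-fold dilutions in 0.2% DMSO, then lysed and BTK quantified by HTRF (665/620 nm). Degradation % normalised to high/low controls; DC50 from four-parameter fit, Dmax as maximal degradation.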

HEK-293 cells = test: HEK-293 Cytotoxicity Assay (CellTiter-Glo); type: cell-based; conditions: Homo sapiens, HEK293, 72 h incubation, CellTiter-Glo luminescence
In short: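 HEK-293 cells treated 72 h with 8 concentrations (4-fold dilutions, 0.2% DMSO final). Viability read by CellTiter-Glo luminescence; IC50 from four-parameter logistic fit of % inhibition.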

T1 sequence (Q06187 whole entry): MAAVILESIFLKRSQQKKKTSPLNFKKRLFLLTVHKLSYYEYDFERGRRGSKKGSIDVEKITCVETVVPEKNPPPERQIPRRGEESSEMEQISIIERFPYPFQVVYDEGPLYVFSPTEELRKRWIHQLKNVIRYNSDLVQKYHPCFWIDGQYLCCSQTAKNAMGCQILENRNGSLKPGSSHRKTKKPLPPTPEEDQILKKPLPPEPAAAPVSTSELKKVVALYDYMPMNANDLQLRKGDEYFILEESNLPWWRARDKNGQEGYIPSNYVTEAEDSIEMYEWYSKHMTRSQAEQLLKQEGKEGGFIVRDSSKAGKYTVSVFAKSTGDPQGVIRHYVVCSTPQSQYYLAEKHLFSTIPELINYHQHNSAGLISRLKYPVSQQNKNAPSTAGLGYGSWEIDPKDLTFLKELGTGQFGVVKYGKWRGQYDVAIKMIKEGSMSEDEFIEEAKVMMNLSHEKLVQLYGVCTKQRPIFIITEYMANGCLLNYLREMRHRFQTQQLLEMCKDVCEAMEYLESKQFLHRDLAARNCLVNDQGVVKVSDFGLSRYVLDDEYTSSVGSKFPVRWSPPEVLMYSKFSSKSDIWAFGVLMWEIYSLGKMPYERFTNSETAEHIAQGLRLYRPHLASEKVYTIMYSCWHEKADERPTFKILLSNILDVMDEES

SMILES	DC50 (BTK) [nM]	IC50 (HEK-293 cells) [nM]
Cc1cc(-c2ncnc3[nH]c(-c4ccc(N5CCN(CC6CCN(c7ccc(N8CCC(=O)N(C)C8=O)cc7)CC6)CC5)cn4)cc23)ccc1[C@@H](C)NC(=O)c1nc(C(C)(C)C)no1 [Example 110, (R)-3-(tert-butyl)-N-(1-(2-methyl-4-(6-(5-(4-((1-(4-(3-methyl-2,4-dioxotetrahydropyrimidin-1(2H)-yl)phenyl)piperidin-4-yl)methyl)piperazin-1-yl)pyridin-2-yl)-7H-pyrrolo[2,3-d]pyrimidin-4-yl)phenyl)ethyl)-1,2,4-oxadiazole-5-carboxamide]	> 2000	> 10000
C[C@@H](NC(=O)c1noc(C(C)(C)C)n1)c1ccc(-c2ncnc3[nH]c(-c4ccc(N5CCN(CC6CCN(c7ccc(N8CCC(=O)NC8=O)cc7)CC6)CC5)cc4)cc23)cc1F [Example 31, (R)-5-(tert-butyl)-N-(1-(4-(6-(4-(4-((1-(4-(2,4-dioxotetrahydropyrimidin-1(2H)-yl)phenyl)piperidin-4-yl)methyl)piperazin-1-yl)phenyl)-7H-pyrrolo[2,3-d]pyrimidin-4-yl)-2-fluorophenyl)ethyl)-1,2,4-oxadiazole-3-carboxamide]	1.5	> 10000
CC(C)(C)c1noc(C(=O)N[C@@H]2CCc3cc(-c4ncnc5[nH]c(-c6ccc(N7CCN(CC8CCN(c9ccc(N%10CCC(=O)NC%10=O)cc9)CC8)CC7)nc6)cc45)ccc32)n1 [Example 151, (R)-3-(tert-butyl)-N-(5-(6-(6-(4-((1-(4-(2,4-dioxotetrahydropyrimidin-1(2H)-yl)phenyl)piperidin-4-yl)methyl)piperazin-1-yl)pyridin-3-yl)-7H-pyrrolo[2,3-d]pyrimidin-4-yl)-2,3-dihydro-1H-inden-1-yl)-1,2,4-oxadiazole-5-carboxamide]	3.24	> 10000
Cc1c([C@@H](C)NC(=O)c2nc(C(C)(C)C)no2)ccc(-c2ncnc3[nH]c(-c4ccc(N5CCN(CC6CCN(c7ccc(N8CCC(=O)NC8=O)cc7)CC6)CC5)cc4)cc23)c1F [Example 78, (R)-3-(tert-butyl)-N-(1-(4-(6-(4-(4-((1-(4-(2,4-dioxotetrahydropyrimidin-1(2H)-yl)phenyl)piperidin-4-yl)methyl)piperazin-1-yl)phenyl)-7H-pyrrolo[2,3-d]pyrimidin-4-yl)-3-fluoro-2-methylphenyl)ethyl)-1,2,4-oxadiazole-5-carboxamide]	0.88	> 10000
C[C@@H](NC(=O)c1nc(C(C)(C)C)no1)c1ccc(-c2ncnc3[nH]c(-c4ccc(N5CCN(CC6CCN(c7ccc(N8CCC(=O)NC8=O)cc7)CC6)CC5)nc4)cc23)cc1F [Example 33, (R)-3-(tert-butyl)-N-(1-(4-(6-(6-(4-((1-(4-(2,4-dioxotetrahydropyrimidin-1(2H)-yl)phenyl)piperidin-4-yl)methyl)piperazin-1-yl)pyridin-3-yl)-7H-pyrrolo[2,3-d]pyrimidin-4-yl)-2-fluorophenyl)ethyl)-1,2,4-oxadiazole-5-carboxamide]	1.7	> 10000
Cc1cc(-c2ncnc3[nH]c(-c4ccc(N5CCN(CCC6CCN(c7ccc([C@@H]8CCC(=O)NC8=O)cc7)CC6)CC5)nc4)cc23)ccc1[C@@H](C)NC(=O)c1nc(C(C)(C)C)no1 [Example 54, 3-(tert-butyl)-N-((R)-1-(4-(6-(6-(4-(2-(1-(4-((S)-2,6-dioxopiperidin-3-yl)phenyl)piperidin-4-yl)ethyl)piperazin-1-yl)pyridin-3-yl)-7H-pyrrolo[2,3-d]pyrimidin-4-yl)-2-methylphenyl)ethyl)-1,2,4-oxadiazole-5-carboxamide]	3.7	> 10000
Cc1cc(-c2ncnc3[nH]c(-c4ccc(C5CCN(CC6CCN(c7ccc(N8CCC(=O)NC8=O)cc7)CC6)CC5)cc4)cc23)ccc1[C@H](C)NC(=O)c1nc(C(C)(C)C)no1 [Example 8, (S)-3-(tert-butyl)-N-(1-(4-(6-(4-(1-((1-(4-(2,4-dioxotetrahydropyrimidin-1(2H)-yl)phenyl)piperidin-4-yl)methyl)piperidin-4-yl)phenyl)-7H-pyrrolo[2,3-d]pyrimidin-4-yl)-2-methylphenyl)ethyl)-1,2,4-oxadiazole-5-carboxamide]	40.9	1960
Cc1cc(-c2ncnc3[nH]c(-c4ccc(N5CCN(CC6CCN(c7ccc(N8CCC(=O)NC8=O)cc7)CC6)CC5)cc4)cc23)c(F)cc1[C@@H](C)NC(=O)c1noc(C(C)(C)C)n1 [Example 107, (R)-5-(tert-butyl)-N-(1-(4-(6-(4-(4-((1-(4-(2,4-dioxotetrahydropyrimidin-1(2H)-yl)phenyl)piperidin-4-yl)methyl)piperazin-1-yl)phenyl)-7H-pyrrolo[2,3-d]pyrimidin-4-yl)-5-fluoro-2-methylphenyl)ethyl)-1 2,4-oxadiazole-3-carboxamide]	1.7	> 10000
Cc1cc(-c2ncnc3[nH]c(-c4c(C)nn(C5CCN(CC6CCN(c7ccc(N8CCC(=O)NC8=O)cc7)CC6)CC5)c4C)cc23)ccc1[C@@H](C)NC(=O)c1nc(C(C)(C)C)no1 [Example 60, (R)-3-(tert-butyl)-N-(1-(4-(6-(1-(1-((1-(4-(2,4-dioxotetrahydropyrimidin-1(2H)-yl)phenyl)piperidin-4-yl)methyl)piperidin-4-yl)-3,5-dimethyl-1H-pyrazol-4-yl)-7H-pyrrolo[2,3-d]pyrimidin-4-yl)-2-methylphenyl)ethyl)-1,2,4-oxadiazole-5-carboxamide]	0.48	> 10000
Cc1cc(N2CCC(CN3CCN(c4ccc(-c5cc6c(-c7ccc([C@@H](C)NC(=O)c8noc(C(C)(C)C)n8)c(C)c7F)ncnc6[nH]5)nc4)CC3)CC2)ccc1N1CCC(=O)NC1=O [Example 128, (R)-5-(tert-butyl)-N-(1-(4-(6-(5-(4-((1-(4-(2,4-dioxotetrahydropyrimidin-1(2H)-yl)-3-methylphenyl)piperidin-4-yl)methyl)piperazin-1-yl)pyridin-2-yl)-7H-pyrrolo[2,3-d]pyrimidin-4-yl)-3-fluoro-2-methylphenyl)ethyl)-1,2,4-oxadiazole-3-carboxamide]	0.47	> 10000
C[C@@H](NC(=O)c1noc(C(C)(C)C)n1)c1ccc(-c2ncnc3[nH]c(-c4ccc(N5CCN(CC6CCN(c7ccc(N8CCC(=O)NC8=O)cc7)CC6)CC5)nc4)cc23)cc1F [Example 34, (R)-5-(tert-butyl)-N-(1-(4-(6-(6-(4-((1-(4-(2,4-dioxotetrahydropyrimidin-1(2H)-yl)phenyl)piperidin-4-yl)methyl)piperazin-1-yl)pyridin-3-yl)-7H-pyrrolo[2,3-d]pyrimidin-4-yl)-2-fluorophenyl)ethyl)-1,2,4-oxadiazole-3-carboxamide]	1.2	> 10000
Cc1cc(-c2ncnc3[nH]c(-c4ccc(N5CCN(CC6CCN(c7ccc(N8CCC(=O)NC8=O)cc7)CC6)CC5)cc4)cc23)c(F)cc1[C@@H](C)NC(=O)c1nc(C(C)(C)C)no1 [Example 79, (R)-3-(tert-butyl)-N-(1-(4-(6-(4-(4-((1-(4-(2,4-dioxotetrahydropyrimidin-1(2H)-yl)phenyl)piperidin-4-yl)methyl)piperazin-1-yl)phenyl)-7H-pyrrolo[2,3-d]pyrimidin-4-yl)-5-fluoro-2-methylphenyl)ethyl)-1,2,4-oxadiazole-5-carboxamide]	1.5	> 10000
Cc1cc(-c2ncnc3[nH]c(-c4ccc(C5CCN(CC6CN(c7ccc(N8CCC(=O)NC8=O)cc7)C6)CC5)cc4)cc23)ccc1CNC(=O)c1nc(C(C)(C)C)no1 [Example 5, 3-(tert-butyl)-N-(4-(6-(4-(1-((1-(4-(2,4-dioxotetrahydropyrimidin-1(2H)-yl)phenyl)azetidin-3-yl)methyl)piperidin-4-yl)phenyl)-7H-pyrrolo[2,3-d]pyrimidin-4-yl)-2-methylbenzyl)-1,2,4-oxadiazole-5-carboxamide]	1	2960
Cc1cc(-c2ncnc3[nH]c(-c4ccc(C5CCN(CC6CCN(c7cc8c(cc7F)C(=O)N(C7CCC(=O)NC7=O)C8=O)CC6)CC5)cc4)cc23)ccc1CNC(=O)c1nc(C(C)(C)C)no1 (centres unmarked) [Example 2, 3-(tert-butyl)-N-(4-(6-(4-(1-((1-(2-(2,6-dioxopiperidin-3-yl)-6-fluoro-1,3-dioxoisoindolin-5-yl)piperidin-4-yl)methyl)piperidin-4-yl)phenyl)-7H-pyrrolo[2,3-d]pyrimidin-4-yl)-2-methylbenzyl)-1,2,4-oxadiazole-5-carboxamide]	1.75	> 10000
Cc1cc(-c2ncnc3[nH]c(-c4ccc(N5CCN(CC6CCN(c7ccc(N8CCC(=O)NC8=O)cc7)CC6)CC5)cc4)cc23)ccc1CNC(=O)c1cn(C(C)(C)C)nn1 [Example 37, 1-(tert-butyl)-N-(4-(6-(4-(4-((1-(4-(2,4-dioxotetrahydropyrimidin-1(2H)-yl)phenyl)piperidin-4-yl)methyl)piperazin-1-yl)phenyl)-7H-pyrrolo[2,3-d]pyrimidin-4-yl)-2-methylbenzyl)-1H-1,2,3-triazole-4-carboxamide]	1.2	> 10000
CC(C)(C)c1noc(C(=O)NCc2ccc(-c3ncnc4[nH]c(-c5ccc(N6CCN(CC7CCN(c8ccc(N9CCC(=O)NC9=O)cc8)CC7)CC6)cc5)cc34)cc2F)n1 [Example 32, 3-(tert-butyl)-N-(4-(6-(4-(4-((1-(4-(2,4-dioxotetrahydropyrimidin-1(2H)-yl)phenyl)piperidin-4-yl)methyl)piperazin-1-yl)phenyl)-7H-pyrrolo[2,3-d]pyrimidin-4-yl)-2-fluorobenzyl)-1,2,4-oxadiazole-5-carboxamide]	1.7	> 10000
